Data from ChEMBL document CHEMBL1139772, “Synthesis and SAR studies of novel antifungal 1,2,3-triazines” (Bioorg Med Chem Lett, 2007).
Converted amounts (≈) assume the structure as drawn.

Key:
[1] = system: Blumeria graminis f. sp. tritici; experiment: Antifungal activity against Erysiphe graminis f. sp. tritici at […] relative to control; assay type: functional
[2] = Partition coefficient, log P by chromatographic hydrophobicity method; assay type: physicochemical; settings: octanol/water
[3] = Aqueous solubility at pH 7.0; assay type: physicochemical
[4] = Partition coefficient, log P of the compound; assay type: physicochemical; settings: octanol/water

Row | logP [2] | solubility [3] [µg/mL] | logP [4] | Compound | Activity [1] [%]
1 |  |  |  | COc1nnnc2c1sc1nc(O)c3c(c12)CCCC3 | 0
2 |  |  |  | c1ccc(NNc2nnnc3c2sc2nc(N4CCOCC4)c4c(c23)CCCC4)cc1 | 0
3 |  |  |  | COc1nnnc2c1sc1nc(N(C)Cc3ccccc3)c3c(c12)CCCC3 | 100
4 | 4.09 | 0.79 (≈ 1.96 µM) |  | COCCN(CCOC)c1nc2sc3c(OC)nnnc3c2c2c1CCCC2 | 67
5 | 3.9 | 0.14 (≈ 0.405 µM) |  | COCCNc1nc2sc3c(OC)nnnc3c2c2c1CCCC2 | 33
6 |  |  |  | CCOc1nnnc2c1sc1nc(N3CCOCC3)c3c(c12)CCCC3 | 100
7 |  |  |  | CCCCN(C)c1nc2sc3c(OC)nnnc3c2c2c1CCCC2 | 83
8 | 3.82 | 0.21 (≈ 0.523 µM) |  | COCCOc1nnnc2c1sc1nc(N3CCOCC3)c3c(c12)CCCC3 | 100
9 |  |  |  | Clc1nnnc2c1sc1nc(N3CCOCC3)c3c(c12)CCCC3 | 0
10 |  |  |  | C1CCc2c(c(N3CCOCC3)nc3sc4c(N5CCOCC5)nnnc4c23)C1 | 0
11 | 5.32 | 0.08 (≈ 0.233 µM) |  | CCN(CC)c1nc2sc3c(OC)nnnc3c2c2c1CCCC2 | 100
12 |  |  |  | CCN(CC)c1nnnc2c1sc1nc(N3CCOCC3)c3c(c12)CCCC3 | 0
13 |  |  |  | CCCOc1nnnc2c1sc1nc(N3CCOCC3)c3c(c12)CCCC3 | 94
14 |  |  |  | CCCOc1nc2sc3c(OC)nnnc3c2c2c1CCCC2 | 100
15 |  |  |  | CCCCNc1nnnc2c1sc1nc(N3CCOCC3)c3c(c12)CCCC3 | 0
16 |  |  |  | CC(Cc1ccc(C(C)(C)C)cc1)CN1C[C@@H](C)O[C@@H](C)C1 (stereo partly specified) [FENPROPIMORPH] | 97

Row | logP [2] | solubility [3] [µg/mL] | logP [4] | Compound | Activity [1] [%]
17 |  |  |  | COCCNc1nnnc2c1sc1nc(N3CCOCC3)c3c(c12)CCCC3 | 0
18 | 4.12 | 0.48 (≈ 1.19 µM) |  | COCCOc1nnnc2c1sc1nc(N(C)CCOC)c3c(c12)CCCC3 | 100
19 |  |  |  | CSc1nnnc2c1sc1nc(N3CCOCC3)c3c(c12)CCCC3 | 100
20 |  |  |  | c1coc(COc2nnnc3c2sc2nc(N4CCOCC4)c4c(c23)CCCC4)c1 | 0
21 |  |  |  | NNc1nnnc2c1sc1nc(N3CCOCC3)c3c(c12)CCCC3 | 0
22 | 4.06 | 0.08 (≈ 0.224 µM) | 4.25 | COc1nnnc2c1sc1nc(N3CCOCC3)c3c(c12)CCCC3 | 100
23 |  |  |  | Sc1nnnc2c1sc1nc(N3CCOCC3)c3c(c12)CCCC3 | 0
24 |  |  |  | c1ccc(CSc2nnnc3c2sc2nc(N4CCOCC4)c4c(c23)CCCC4)cc1 | 0
25 |  |  |  | COc1nnnc2c1sc1nc(OS(=O)(=O)C(F)(F)F)c3c(c12)CCCC3 | 40
26 | 4.31 | 0.32 (≈ 0.89 µM) |  | COCCN(C)c1nc2sc3c(OC)nnnc3c2c2c1CCCC2 | 100
27 |  |  |  | CC(C)Oc1nnnc2c1sc1nc(N3CCOCC3)c3c(c12)CCCC3 | 0
28 |  |  |  | CCSc1nnnc2c1sc1nc(N3CCOCC3)c3c(c12)CCCC3 | 100
29 |  |  |  | CC(C)CCOc1nnnc2c1sc1nc(N3CCOCC3)c3c(c12)CCCC3 | 0
30 |  |  |  | COc1nnnc2c1sc1nc(N3CCCC3)c3c(c12)CCCC3 | 92
31 |  |  |  | C1CCc2c(c(N3CCOCC3)nc3sc4c(OC5CCCC5)nnnc4c23)C1 | 0
